These molecules were tested on HEK293T cells carrying the ATF4 luciferase reporter (assay: ATF4-Luc assay (in vitro model of vanishing white matter disease)). Settings: Homo sapiens, HEK-293T, 1 μg/mL tunicamycin, 7 hours.
Type: cell-based
In short: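 Stable HEK293T line expressing firefly luciferase behind the human full-length ATF4 5′-UTR, grown in DMEM/10% FBS. Cells were co-treated with 1 μg/mL tunicamycin and 200 nM compound for 7 h. Luciferase luminescence was read as the output, and EC50 values were derived from it.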
Molecule `O=C(COc1ccc(Cl)c(F)c1)NC12CCC(C(=O)Nc3ccc(OC(F)F)nc3)(C1)C2` [Compound 268, 4-[2-(4-chloro-3-fluorophenoxy)acetamido]-N-[6-(difluoromethoxy)pyridin-3-yl]bicyclo[2.1.1]hexane-1-carboxamide] has an EC50 of 250 to 500 nM. With `O=C(COc1ccc(Cl)c(F)c1)NC12CC(C(=O)Nc3cc(CO)ccn3)(C1)C2` [Compound 313, 3-[2-(4-chloro-3-fluorophenoxy)acetamido]-N-[4-(hydroxymethyl)pyridin-2-yl]bicyclo[1.1.1]pentane-1-carboxamide] the EC50 was 1000 to 2000 nM. `O=C(COc1ccc(Cl)c(F)c1)NC12CCC(C(=O)Nc3ccc(Cl)c(F)c3)(CC1)OC2` [Compound 338, 4-[2-(4-chloro-3-fluorophenoxy)acetamido]-N-(4-chloro-3-fluorophenyl)-2-oxabicyclo[2.2.2]octane-1-carboxamide] was tested, and the EC50 was < 250 nM. With `O=C(COc1ccc(Cl)c(F)c1)NC12CC(C(=O)Nc3ccccc3)(C1)C2` [Compound 285, 3-[2-(4-chloro-3-fluorophenoxy)acetamido]-N-phenylbicyclo[1.1.1]pentane-1-carboxamide] the EC50 was < 250 nM. With `O=C(COc1ccc(Cl)c(F)c1)NC12CCC(C(=O)Nc3ccc(OC(F)F)nc3)(CC1)CC2` [Compound 278, 4-[2-(4-chloro-3-fluorophenoxy)acetamido]-N-[6-(difluoromethoxy)pyridin-3-yl]bicyclo[2.2.2]octane-1-carboxamide] the EC50 was < 250 nM.

Source: US20240173307A1, “MODULATORS OF THE INTEGRATED STRESS PATHWAY” (Calico Life Sciences LLC, priority 2017, published 2024)
